Test results as given in patent US20230135100A1, “PROCESS OF PREPARING A PEPTIDE EPOXYKETONE IMMUNOPROTEASOME INHIBITOR, AND PRECURSORS THEREOF” (KEZAR LIFE SCIENCES, priority 2016, published 2023).
Several values for one entry are separate records, joined by “and”; a condition that tells them apart may be missing. Identical values can stand only once. Counter-ions that a name gives are not always drawn. Like-named read-outs stand apart in the source and are kept apart here.

Conditions: 25° C., relative humidity 40%

SMILES | % Purity at Indicated Time (days) (90 days) | % Decomposition (1 day) | % Purity at Indicated Time (days) (1 day)
C[C@]1(C(=O)[C@@H](N)CC2=CCCC2)CO1 [Tosylate, (S)-3-(cyclopent-1-en-1-yl)-1-((R)-2-methyloxiran-2-yl)-1-oxopropan-2-aminium salt] | 96.0 (90) % and 85.0 (90) % | – | –
C[C@]1(C(=O)[C@@H](N)CC2=CCCC2)CO1 [Trifluoroacetate, (S)-3-(cyclopent-1-en-1-yl)-1-((R)-2-methyloxiran-2-yl)-1-oxopropan-2-aminium salt] | – | 5.7% and 8.8% | 79.6 (1) % and 86.0 (1) %
